Our source for the CLint scaled, EC50 and Emax values is patent publication US20190062305A1, “PYRIDYL OR PYRAZINYL COMPOUNDS CARRYING A METHYL-BOUND ALPHA-AMINO ACID AMIDE GROUP” (ABBVIE DEUTSCHLAND GMBH & CO. KG, priority 2015, published 2019).

Structures can show the parent of a compound that is named as a salt. Where two headings read alike, the source gives them in different places.

Data set [1] is described as follows: Metabolic stability in human liver microsomes, unbound intrinsic clearance (Cl int/fu mic). It counts as in vitro ADME. The following applies: pH 7.4, human liver microsomes 0.25 mg/mL, 0.5 μM compound, NADPH, read-out: Cl int, mic unb. (h) [l/h/kg] (unbound intrinsic clearance, human). The essentials:
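Compound (0.5 µM) was incubated with human liver microsomes (0.25 mg/mL) in pH 7.4 phosphate buffer at 37 °C with 1.0 mM NADPH, sampling from 0–30 min. Depletion was followed by LC-MS/MS, and CLint was derived from first-order t1/2 per mg protein. Microsomal unbound fraction came from 4 h equilibrium dialysis at 37 °C, giving CLint/fu mic.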
In general terms: Liver microsomes are vesicles of endoplasmic reticulum, rich in cytochrome P450 enzymes.

A further data set has as its target T1, 5-HT2C receptor (Homo sapiens, UniProt P28335).
T1 construct: host or cells: U2OS
The data set can be described thus: Human 5-HT2C functional assay (beta-arrestin2 recruitment, U2OS_HTR2C_β-Arrestin cells). It is filed as cell-based. Particulars: for EC50: beta-arrestin2 recruitment, U2OS_HTR2C_β-Arrestin cells, 1.5 h incubation, read-out: EC50 5-HT2C (potency in functional assay); for Emax: relative efficacy vs response to 10 μM 5-HT or maximal 5-HT effect (100%). In short, it runs like this: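 U2OS cells expressing HTR2C with β-galactosidase complementation, switched to 1% serum medium 24 h post-plating, were treated next day with compound for 1.5 h; chemiluminescence read. Response expressed as % of 10 µM 5-HT or maximal 5-HT effect; EC50 from 4-parameter variable-slope fit.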

T1 sequence (P28335 33-458): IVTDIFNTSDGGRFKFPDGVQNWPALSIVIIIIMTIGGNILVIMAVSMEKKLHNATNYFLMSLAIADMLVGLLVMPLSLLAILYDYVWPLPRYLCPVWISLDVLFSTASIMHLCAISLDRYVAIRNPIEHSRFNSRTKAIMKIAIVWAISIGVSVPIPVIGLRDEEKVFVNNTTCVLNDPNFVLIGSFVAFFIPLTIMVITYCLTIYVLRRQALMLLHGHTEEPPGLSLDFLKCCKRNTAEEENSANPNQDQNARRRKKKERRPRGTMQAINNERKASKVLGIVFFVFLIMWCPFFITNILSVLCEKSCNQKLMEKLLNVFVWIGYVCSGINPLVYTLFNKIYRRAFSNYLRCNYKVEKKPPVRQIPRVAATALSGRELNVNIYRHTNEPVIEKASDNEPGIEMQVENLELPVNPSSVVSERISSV
T1 sequence (P32121 whole entry partner): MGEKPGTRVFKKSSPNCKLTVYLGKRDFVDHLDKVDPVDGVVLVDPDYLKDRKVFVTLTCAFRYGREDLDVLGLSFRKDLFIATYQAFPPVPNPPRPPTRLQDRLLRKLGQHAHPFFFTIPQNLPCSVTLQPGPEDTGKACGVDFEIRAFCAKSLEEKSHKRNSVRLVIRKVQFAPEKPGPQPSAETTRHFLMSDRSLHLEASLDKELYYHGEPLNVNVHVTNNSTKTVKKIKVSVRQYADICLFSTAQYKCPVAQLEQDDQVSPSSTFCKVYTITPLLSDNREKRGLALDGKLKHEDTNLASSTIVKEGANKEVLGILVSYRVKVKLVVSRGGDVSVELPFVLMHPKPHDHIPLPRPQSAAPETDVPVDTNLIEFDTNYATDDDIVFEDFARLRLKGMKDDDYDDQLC

As to `COc1nc(OCC(C)(C(F)(F)F)C(F)(F)F)c(F)cc1CNC(=O)[C@@H]1CCCN1` [Example 109, (2S)—N-[[5-Fluoro-2-methoxy-6-[3,3,3-trifluoro-2-methyl-2-(trifluoromethyl)propoxy]-3-pyridyl]methyl]pyrrolidine-2-carboxamide Hydrochloride], the CLint scaled at 0.5 μM in data set [1] (human, liver microsomes) was in the range of 50 to 500 L/h/kg. At 5-HT2C receptor, the concentration for a half-maximal effect (EC50) (usually the midpoint of the concentration-response curve) is under 20 nM and the maximal effect (Emax) (commonly the size of the effect at its maximum, as opposed to the concentration needed) was over 70%.
Regarding `COc1nc(OCC(F)(F)C(F)(F)C(F)(F)F)c(F)cc1CNC(=O)[C@@H]1CCCN1` [Example 110, (2S)—N-[[5-Fluoro-6-(2,2,3,3,4,4,4-heptafluorobutoxy)-2-methoxy-3-pyridyl]-methyl]pyrrolidine-2-carboxamide Hydrochloride], in data set [1], the CLint scaled at 0.5 μM was 5 to 50 L/h/kg. At 5-HT2C receptor, the EC50 is under 20 nM and the Emax is over 70%.
Regarding `COc1nc(OC(C(F)(F)F)C(F)(F)F)c(F)cc1CNC(=O)[C@@H]1CCCN1` [Example 111, (2S)—N-[[5-Fluoro-2-methoxy-6-[2,2,2-trifluoro-1-(trifluoromethyl)ethoxy]-3-pyridyl]methyl]pyrrolidine-2-carboxamide Hydrochloride], the CLint scaled at 0.5 μM in data set [1] (human, liver microsomes) fell in the range of 5 to 50 L/h/kg. In addition, at 5-HT2C receptor, the EC50 was under 20 nM and the Emax was over 70%.
In the case of `COc1nc(OC2CC(F)(F)C2(F)F)c(F)cc1CNC(=O)[C@@H]1CCCN1` (stereo partly drawn) [Example 112, (2S)—N-[[5-Fluoro-2-methoxy-6-(2,2,3,3-tetrafluorocyclobutoxy)-3-pyridyl]methyl]pyrrolidine-2-carboxamide; 2,2,2-trifluoroacetic Acid], the CLint scaled at 0.5 μM in data set [1] (human, liver microsomes) was under 5 L/h/kg. In addition, at 5-HT2C receptor, the EC50 was under 20 nM and the Emax is over 70%.
For `COc1nc(OCC(F)(F)F)c(F)cc1CN(C)C(=O)[C@@H]1CCCN1C` [Example 113, (2S)—N-[[5-Fluoro-2-methoxy-6-(2,2,2-trifluoroethoxy)-3-pyridyl]methyl]-N,1-dimethyl-pyrrolidine-2-carboxamide Hydrochloride], in that order: under 5 L/h/kg, 200 to 1000 nM and 30 to 50%.
For `COc1nc(OC2CCC(F)(F)CC2)c(F)cc1CN(C)C(=O)[C@@H]1CCCN1` [Example 114, (2S)—N-[[6-(4,4-Difluorocyclohexoxy)-5-fluoro-2-methoxy-3-pyridyl]methyl]-N-methyl-pyrrolidine-2-carboxamide Hydrochloride], in that order: 5 to 50 L/h/kg, under 20 nM and over 70%.
For `COc1nc(OCC2CC(F)(F)C2)c(F)cc1CN(C)C(=O)[C@@H]1CCCN1` [Example 115, (2S)—N-[[6-[(3,3-Difluorocyclobutyl)methoxy]-5-fluoro-2-methoxy-3-pyridyl]-methyl]-N-methyl-pyrrolidine-2-carboxamide Hydrochloride], in that order: under 5 L/h/kg, under 20 nM and 50 to 70%.
For the compound `COc1nc(O[C@H]2CC[C@H](C(F)(F)F)CC2)c(F)cc1CN(C)C(=O)[C@@H]1CCCN1` [Example 116, (2S)—N-[[5-Fluoro-2-methoxy-6-[trans-4-(trifluoromethyl)cyclohexoxy]-3-pyridyl]methyl]-N-methyl-pyrrolidine-2-carboxamide Hydrochloride], the CLint scaled at 0.5 μM in data set [1] (human, liver microsomes) is 5 to 50 L/h/kg. On 5-HT2C receptor, the half-maximal effective concentration (EC50) is 20 to 200 nM and the maximal effect (Emax) was in the range of 50 to 70%.
Turning to `COc1nc(OCC(F)(F)C(F)(F)C(F)(F)F)c(F)cc1CN(C)C(=O)[C@@H]1CCCN1` [Example 117, (2S)—N-[[5-Fluoro-6-(2,2,3,3,4,4,4-heptafluorobutoxy)-2-methoxy-3-pyridyl]-methyl]-N-methyl-pyrrolidine-2-carboxamide Hydrochloride], the CLint scaled at 0.5 μM in data set [1] lay in the range of 5 to 50 L/h/kg. At 5-HT2C receptor, the EC50 is under 20 nM and the Emax was in the range of 50 to 70%.
As to `COc1nc(OC2CCC3(CC2)CC3(F)F)c(F)cc1CNC(=O)[C@@H]1CCCN1` (stereo partly drawn) [Example 118, (2S)—N-[[6-(2,2-Difluorospiro[2.5]octan-6-yl)oxy-5-fluoro-2-methoxy-3-pyridyl]methyl]pyrrolidine-2-carboxamide; 2,2,2-trifluoroacetic Acid], in data set [1] (human, liver microsomes), the CLint scaled at 0.5 μM was in the range of 5 to 50 L/h/kg. Further, at 5-HT2C receptor, the EC50 was under 20 nM and the Emax was over 70%.
As to `COc1nc(O[C@H]2CC[C@@H](C(F)(F)F)CC2)c(F)cc1CN(C)C(=O)[C@@H]1CCCN1` [Example 119, (2S)—N-[[5-Fluoro-2-methoxy-6-[cis-4-(trifluoromethyl)cyclohexoxy]-3-pyridyl]-methyl]-N-methyl-pyrrolidine-2-carboxamide hydrochloride], in data set [1] (human, liver microsomes), the CLint scaled at 0.5 μM fell in the range of 5 to 50 L/h/kg. Also, on 5-HT2C receptor, the half-maximal effective concentration (EC50) is 20 to 200 nM and the maximal effect (Emax) is over 70%.
For `COc1nc(-c2ccccc2)c(F)cc1CNC(=O)[C@@H]1CCCN1` [Example 125, (2S)—N-[(5-Fluoro-2-methoxy-6-phenyl-3-pyridyl)methyl]pyrrolidine-2-carboxamide; 2,2,2-trifluoroacetic Acid], in that order: 5 to 50 L/h/kg, 200 to 1000 nM and over 70%.
For `COc1nc(NC2CCC(F)(F)CC2)c(F)cc1CNC(=O)[C@@H]1CCCN1` [Example 126, (2S)—N-[[6-[(4,4-Difluorocyclohexyl)amino]-5-fluoro-2-methoxy-3-pyridyl]methyl]pyrrolidine-2-carboxamide; 2,2,2-trifluoroacetic Acid], in that order: under 5 L/h/kg, under 20 nM and over 70%.
Taken in the same sequence, the figures for `COc1nc(C2CC2)c(F)cc1CNC(=O)[C@@H]1CCCN1` [Example 127, (2S)—N-[(6-Cyclopropyl-5-fluoro-2-methoxy-3-pyridyl)methyl]pyrrolidine-2-carboxamide; 2,2,2-trifluoroacetic Acid] were 5 to 50 L/h/kg, 200 to 1000 nM and over 70%.
Turning to `COc1nc(N2CCCCC2)c(F)cc1CNC(=O)[C@@H]1CCCN1` [Example 128, (2S)—N-[[5-Fluoro-2-methoxy-6-(1-piperidyl)-3-pyridyl]methyl]pyrrolidine-2-carboxamide], in data set [1] (human, liver microsomes), the CLint scaled at 0.5 μM is under 5 L/h/kg. For the same compound, on 5-HT2C receptor, the concentration for a half-maximal effect (EC50) was in the range of 20 to 200 nM and the Emax was over 70%.
For `COc1nc(NC2CCC(C(F)(F)F)CC2)c(F)cc1CNC(=O)[C@@H]1CCCN1` (stereo partly drawn) [Example 130, (2S)—N-[[5-Fluoro-2-methoxy-6-[[4-(trifluoromethyl)cyclohexyl]amino]-3-pyridyl]methyl]pyrrolidine-2-carboxamide], the CLint scaled at 0.5 μM in data set [1] (human, liver microsomes) was in the range of 5 to 50 L/h/kg. At 5-HT2C receptor, the EC50 was under 20 nM and the Emax is over 70%.
Take `COc1nc(NC2CCCCC2)c(F)cc1CNC(=O)[C@@H]1CCCN1` [Example 131, (2S)—N-[[6-(Cyclohexylamino)-5-fluoro-2-methoxy-3-pyridyl]methyl]pyrrolidine-2-carboxamide]: the CLint scaled at 0.5 μM in data set [1] (human, liver microsomes) lay within 5 to 50 L/h/kg. Besides, on 5-HT2C receptor, the concentration giving a half-maximal response (EC50) was under 20 nM and the maximal response (Emax) was over 70%.
As for `COc1nc(C2CCCCC2)c(F)cc1CNC(=O)[C@@H]1CCCN1` [Example 132, (2S)—N-[(6-Cyclohexyl-5-fluoro-2-methoxy-3-pyridyl)methyl]pyrrolidine-2-carboxamide; 2,2,2-trifluoroacetic Acid], the CLint scaled at 0.5 μM in data set [1] (human, liver microsomes) fell in the range of 50 to 500 L/h/kg. In addition, on 5-HT2C receptor, the EC50 was under 20 nM and the Emax is over 70%.
